Experimental data taken from patent US20220023386A1, “METHOD FOR THE TREATMENT OR PREVENTION OF OSTEOARTHRITIS” (Chondropeptix B.V., priority 2016, published 2022).

Assays:
[1] = tested on: OA articular chondrocytes; assay: Expression of OA chondrocyte phenotype marker genes by RT-qPCR after peptide exposure; assay type: cell-based, human; parameters: key: [+] denotes a significantly increased expression of chondrogenic marker BAPX1/NKX3.2 or a decreased expression of OA chondrocyte phenotypic markers ALP, MMP13, ADAMTS5, COX2, COL10A and RUNX2 in OA articular chondrocytes, in comparison to untreated OA articular chondrocytes.; [−] denotes the absence of a significant effort or a significantly decreased expression of chondrogenic marker BAPX1/NKX3.2 or an increased expression of OA chondrocyte phenotypic markers ALP, MMP13, ADAMTS5, COX2, COL10A and RUNX2 in OA articular chondrocytes, in comparison to untreated OA articular chondrocytes; conditions: Table 3, N- and C-terminally truncated peptides; vs untreated OA articular chondrocytes
[2] = tested on: OA articular chondrocytes; assay: as above; assay type: cell-based, human; parameters: key to ADAMTS5 expression: [+] denotes a significantly increased expression of chondrogenic marker BAPX1/NKX3.2 or a decreased expression of OA chondrocyte phenotypic markers ALP, MMP13, ADAMTS5, COX2, COL10A and RUNX2 in OA articular chondrocytes, in comparison to untreated OA articular chondrocytes.; [−] denotes the absence of a significant effort or a significantly decreased expression of chondrogenic marker BAPX1/NKX3.2 or an increased expression of OA chondrocyte phenotypic markers ALP, MMP13, ADAMTS5, COX2, COL10A and RUNX2 in OA articular chondrocytes, in comparison to untreated OA articular chondrocytes; conditions: Table 3, N- and C-terminally truncated peptides; vs untreated OA articular chondrocytes

22 (AAYYSEGESAFPLNS; homo sapiens) [compound 22]
+: ALP expression [1] | BAPX1/NKX3.2 expression [1] | COL10A expression [1] | COX-2 expression [1] | MMP13 expression [1] | RUNX2 expression [1] | ADAMTS5 expression [2]

23 (AYYSEGESAFPLNS; homo sapiens) [compound 23]
+: ALP expression [1] | BAPX1/NKX3.2 expression [1] | COL10A expression [1] | COX-2 expression [1] | MMP13 expression [1] | RUNX2 expression [1] | ADAMTS5 expression [2]

24 (YYSEGESAFPLNS; homo sapiens) [compound 24]
+: ALP expression [1] | BAPX1/NKX3.2 expression [1] | COL10A expression [1] | COX-2 expression [1] | MMP13 expression [1] | RUNX2 expression [1] | ADAMTS5 expression [2]

25 (YSEGESAFPLNS; homo sapiens) [compound 25]
+: ALP expression [1] | BAPX1/NKX3.2 expression [1] | COL10A expression [1] | COX-2 expression [1] | MMP13 expression [1] | RUNX2 expression [1] | ADAMTS5 expression [2]

26 (YSEGESAFPLNSY; homo sapiens) [compound 26]
+: ALP expression [1] | BAPX1/NKX3.2 expression [1] | COL10A expression [1] | COX-2 expression [1] | MMP13 expression [1] | RUNX2 expression [1] | ADAMTS5 expression [2]

27 (YSEGESAFPLNSYM; homo sapiens) [compound 27]
+: ALP expression [1] | BAPX1/NKX3.2 expression [1] | COL10A expression [1] | COX-2 expression [1] | MMP13 expression [1] | RUNX2 expression [1] | ADAMTS5 expression [2]

28 (YSEGESAFPLNSYMN; homo sapiens) [compound 28]
+: ALP expression [1] | BAPX1/NKX3.2 expression [1] | COL10A expression [1] | COX-2 expression [1] | MMP13 expression [1] | RUNX2 expression [1] | ADAMTS5 expression [2]

29 (YSEGESAFPLNSYMNA; homo sapiens) [compound 29]
+: ALP expression [1] | BAPX1/NKX3.2 expression [1] | COL10A expression [1] | COX-2 expression [1] | MMP13 expression [1] | RUNX2 expression [1] | ADAMTS5 expression [2]

30 (YSEGESAFPLNSYMNAT; homo sapiens) [compound 30]
+: ALP expression [1] | BAPX1/NKX3.2 expression [1] | COL10A expression [1] | COX-2 expression [1] | MMP13 expression [1] | RUNX2 expression [1] | ADAMTS5 expression [2]

31 (YSEGESAFPLNSYMNATN; homo sapiens) [compound 31]
+: ALP expression [1] | BAPX1/NKX3.2 expression [1] | COL10A expression [1] | COX-2 expression [1] | MMP13 expression [1] | RUNX2 expression [1] | ADAMTS5 expression [2]

32 (YSEGESAFPLNSYMNATNH; homo sapiens) [compound 32]
+: ALP expression [1] | BAPX1/NKX3.2 expression [1] | COL10A expression [1] | COX-2 expression [1] | MMP13 expression [1] | RUNX2 expression [1] | ADAMTS5 expression [2]

33 (YSEGESAFPLNSYMNATNHA; homo sapiens) [compound 33]
+: ALP expression [1] | BAPX1/NKX3.2 expression [1] | COL10A expression [1] | COX-2 expression [1] | MMP13 expression [1] | RUNX2 expression [1] | ADAMTS5 expression [2]

34 (APEGYAAYYSEGESAFPLNSYMNATNHA; homo sapiens) [compound 34]
+: ALP expression [1] | BAPX1/NKX3.2 expression [1] | COL10A expression [1] | COX-2 expression [1] | MMP13 expression [1] | RUNX2 expression [1] | ADAMTS5 expression [2]

35 (PEGYAAYYSEGESAFPLNSYMNATNHA; homo sapiens) [compound 35]
+: ALP expression [1] | BAPX1/NKX3.2 expression [1] | COL10A expression [1] | COX-2 expression [1] | MMP13 expression [1] | RUNX2 expression [1] | ADAMTS5 expression [2]
